Results reported in patent US11236055B2 (Venenum Biodesign, LLC, priority 2016, dated 2022).

Columns and labels:
Mouse STC-1 cells = assay: STC-1 GLP-1 assay; format: cell-based; conditions: GLP-1 secretion, 2 h, coded A-C, read-out: Mouse STC-1 HTRF GLP-1 Activity (EC50)
Protocol: We evaluated Compounds of the present invention for their ability to induce GLP-1 production in mouse intestinal neuroendocrine tumor cells. Mouse STC-1 cells were cultured and maintained in high glucose DMEM (Sigma #5796) supplemented with 15% horse serum, 5% Fetal Bovine Serum (FBS), 1% penicillin/streptomycin, and 2 mM L-alanine L-glutamine (GlutaMax). Two days prior to analysis of GLP-1 secretion cells were harvested using Accutase (Sigma), spun down then resuspended in high glucose DMEM media containing 2 mM L-alanine L-glutamine (GlutaMax), 10% charcoal-dextran stripped FBS, and 50 μg/mL Gentamicin, at a density of 100,000 cells/mL. 100 μL of cell suspension was added to each well of a 96-well Poly-D-Lysine coated culture plate (Sigma; cat #2382493) and was incubated at 37° C. with 5% CO2.
Compounds were initially diluted in 100% DMSO (12-point serial dilution by half logs) in a 96-well plate and then were further diluted 1:500 in Hanks' Balanced Salt Solution (HBSS) containing protease inhibitor cocktail, DPP-IV inhibitor, and 0.1% fatty acid free bovine serum albumin. On the day of the experiment cells were washed once with HBSS. After wash, 100 μL of test compound was added to each well. The plate was incubated at 37° C. with 5% CO2 for 2 h. Supernatants were collected and GLP-1 secretion was measured using the Cisbio™ Active GLP-1 HTRF Assay Kit (Cisbio). Briefly, Anti-GLP-1-d2 conjugate and Anti-GLP-1 Terbium Cryptate conjugate stock solutions were prepared as per kit instructions. The two solutions were pre-mixed and 10 μL were transferred to a 384-well low volume plate (Greiner; cat #784075). 10 μL of collected supernatants were added to wells already containing the conjugate solution. The plate was covered and incubated at room temperature overnight. The plate was read on an Envision™ plate reader (Perkin Elmer).
In Table 34, EC50 values obtained from the STC-1 GLP-1 production assay for compounds of the present invention are summarized.

human TGR5 receptor = target: T1, human TGR5 receptor (Homo sapiens, UniProt Q8TDU6); assay: Human TGR5 cAMP production assay; format: cell-based; conditions: human TGR5, luminescent cAMP assay; coded A-D; read-out: Human TGR5 Lum. cAMP Activity (EC50)
T1 construct: host or cells: CHO-K1 (hTGR5-CHO cells)
T1 sequence (Q8TDU6 1-330): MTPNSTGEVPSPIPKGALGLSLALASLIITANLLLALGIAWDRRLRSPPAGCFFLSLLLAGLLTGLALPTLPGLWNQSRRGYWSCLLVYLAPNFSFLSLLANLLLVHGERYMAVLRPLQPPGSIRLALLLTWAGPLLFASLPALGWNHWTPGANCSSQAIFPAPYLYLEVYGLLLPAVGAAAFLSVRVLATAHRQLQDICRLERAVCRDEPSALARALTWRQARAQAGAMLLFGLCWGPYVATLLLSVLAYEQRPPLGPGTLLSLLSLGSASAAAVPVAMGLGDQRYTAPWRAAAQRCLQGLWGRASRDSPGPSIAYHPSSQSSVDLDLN
Outline: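 CHO-K1 cells stably expressing human TGR5, with IBMX and cAMP antibody, were exposed to half-log serially diluted compound for 1 h at room temperature. cAMP measured by enzyme-fragment complementation luminescence (XS+ kit) after overnight incubation; EC50 values reported.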

mouse TGR5 receptor = target: T2, mouse TGR5 receptor (Mus musculus, UniProt Q80SS6); assay: Mouse TGR5 cAMP production assay (HTRF, Cisbio cAMP HiRange); format: cell-based; conditions: HEK293-EBNA cells overexpressing mouse TGR5, HTRF cAMP HiRange; coded A-D
T2 construct: expressed in transfected cells; host or cells: HEK293-EBNA (293 c18, ATCC CRL10852), Hygromycin B selection
T2 sequence (Q80SS6 1-329): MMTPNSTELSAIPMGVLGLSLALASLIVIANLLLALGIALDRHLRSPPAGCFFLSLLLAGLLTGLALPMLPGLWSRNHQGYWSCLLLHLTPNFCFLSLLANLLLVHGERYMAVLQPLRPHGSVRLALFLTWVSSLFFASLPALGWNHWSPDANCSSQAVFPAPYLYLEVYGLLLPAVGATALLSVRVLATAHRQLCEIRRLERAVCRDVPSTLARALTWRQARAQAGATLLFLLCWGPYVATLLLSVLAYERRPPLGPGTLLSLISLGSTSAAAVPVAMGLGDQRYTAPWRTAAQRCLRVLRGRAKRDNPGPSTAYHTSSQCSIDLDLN
Outline: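 cAMP read by HTRF competition after 1 h room-temperature compound exposure of mouse TGR5-overexpressing HEK293-EBNA cells. Cells were suspended in serum-free DMEM containing 500 μM IBMX; compounds ran as 12-point half-log dilutions in duplicate; EC50 derived.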

[1] = Pharmacokinetic profile in mice; format: in vivo; conditions: mouse; fasted male Hilltop mice, 10 mg/kg oral gavage, plasma, mean of three mice
Protocol: Pharmacokinetic Profile in Mice
In this series of studies, the pharmacokinetic profile characteristics of compounds of the present invention were evaluated. The plasma concentration levels of the compounds were monitored in the blood stream (i.e., plasma) after oral gavage using Cmax, and area under the curve (AUC).
8 week old male Hilltop mice were fasted overnight. Animals were randomized into groups (n=9) by body weight. Mice were dosed with 10 mg/kg compound (in 20% PEG400/80% 0.5% carboxymethylcellulose (medium viscosity)+0.25% Tween-80) at a volume of 10 mL/kg through oral gavage. Blood was collected via orbital bleeding at 0, 0.25, 0.5, 1, 2, and 4 h post-dose, with no one mouse having more than 3 blood draws. Blood was collected in EDTA coated tubes. Samples were stored at −20° C. until analysis.
Quantitation of compound levels in plasma was accomplished by LC-MS/MS analysis. Standard curve and quality control samples were prepared in male CD-1 mouse plasma containing EDTA K^2+ as an anticoagulant at final concentrations ranging from 500 to 0.1 ng/mL. The plasma samples, calibration curve standards, and quality control samples were prepared in an identical method in a 96-well deep plate (1 mL) with a quenching solution (1:1 mixed acetonitrile:methanol containing the internal standard Reserpine @ 400 ng/mL). Low volume samples were supplemented with CD-1 mouse plasma. The plate was mixed on multi-tube votex for 1 min and centrifuged at 4000 rpm for 30 min at 4° C. (Sorvall® Super T21) before LC-MS/MS analysis. LC conditions were developed and optimized based on each compound as needed. The outlet of the column was coupled to AB Sciex 4000 QTrap Mass Spectrometer (AB Sciex, Brugg Switzerland). Detection was carried out using multiple reaction monitoring mode with positive-ion detection focusing. The pharmacokinetic parameters were derived from the plasma-time data and calculated using the standard non-compartmental method with WinNonlin (Pharsight, Mountain View, Calif.) or PK Solver (Comp. Meth. Prog. Biomed. (2010), 99, 306-314).
Values reported are the mean plasma concentration of three mice.

| SMILES | EC50 (Mouse STC-1 cells) [nM] | EC50 (human TGR5 receptor) [nM] | EC50 (mouse TGR5 receptor) [nM] | Cmax [1] [ng/mL] |
| --- | --- | --- | --- | --- |
| COc1cnccc1-c1cccc(C(C)(C)NS(=O)(=O)c2cccc(Cl)c2C)c1 [Compound 2BL] | 100 to 999 | < 100 | < 100 |  |
| CCOC(=O)C[C@H](NS(=O)(=O)c1ccccc1C(F)(F)F)c1cccc(-c2ccncc2C)c1 [Compound 18A, (S)-ethyl 3-(3-(3-methylpyridin-4-yl)phenyl)-3-(2-(trifluoromethyl)phenylsulfonamido)-propanoate] | 1000 to 30000 | < 100 | < 100 |  |
| Cc1cnccc1-c1cccc(C(C)(C)N(CCCN/C(=N\C#N)NCCC(=O)O)S(=O)(=O)c2cccc(Cl)c2C)c1 [Compound 25, (E)-3-(3-(3-((3-chloro-2-methyl-N-(2-(3-(3-methylpyridin-4-yl)phenyl)propan-2-yl)phenyl)sulfonamido)propyl)-2-cyanoguanidino)propanoic acid] |  | < 100 | < 100 | 3.1 |
| CCOC(=O)CCCN(C(C)(C)c1cccc(-c2ccncc2C)c1)S(=O)(=O)c1ccccc1C(F)(F)F [Compound 14A, Ethyl 4-(N-(2-(3-(3-methylpyridin-4-yl)phenyl)propan-2-yl)-2-(trifluoromethyl)phenylsulfonamido)butanoate] | 100 to 999 | < 100 | 100 to 999 |  |
| CC[C@H](NS(=O)(=O)c1ccccc1C(F)(F)F)c1cccc(-c2ccncc2C)c1 [Compound 5AW, (S)-N-(1-(3-(3-methylpyridin-4-yl)phenyl)propyl)-2-(trifluoromethyl)benzenesulfonamide] | 1000 to 30000 | < 100 | < 100 |  |
| CCc1cnccc1-c1cccc(C2CN(C(=O)COCC(=O)O)CCN2S(=O)(=O)c2cccc(Cl)c2C)c1 (stereo not drawn) [Compound 46AB, 2-(2-(4-((3-chloro-2-methylphenyl)sulfonyl)-3-(3-(3-ethylpyridin-4-yl)phenyl)piperazin-1-yl)-2-oxoethoxy)acetic acid] |  | < 100 | < 100 | 4.5 |
| COc1cnccc1-c1cccc(C(C)(C)NS(=O)(=O)c2cccc(Cl)c2Cl)c1 [Compound 2BC] | 1000 to 30000 | < 100 | < 100 |  |
| Cc1cnccc1-c1cccc(C(C)(C)N(CCCC(=O)NCC[N+](C)(C)C)S(=O)(=O)c2cccc(Cl)c2C)c1 [Compound 27AD, 2-(4-(3-chloro-2-methyl-N-(2-(3-(3-methylpyridin-4-yl)phenyl)propan-2-yl)phenylsulfonamido)butanamido)-N,N,N-trimethylethanaminium] |  | < 100 | 100 to 999 | 25.4 |
| Cc1cnccc1-c1cccc(C(NS(=O)(=O)c2ccccc2C(F)(F)F)C2CC2)c1 (racemic) [Compound 5AV, (+/−)N-(cyclopropyl(3-(3-methylpyridin-4-yl)phenyl)-methyl)-2-(trifluoromethyl)benzenesulfonamide] | 1000 to 30000 | < 100 | 100 to 999 |  |
| COC(=O)CN(C(C)(C)c1cccc(-c2ccncc2C)c1)S(=O)(=O)c1ccccc1C(F)(F)F [Compound 13, Methyl 2-(N-(2-(3-(3-methylpyridin-4-yl)phenyl)propan-2-yl)-2-(trifluoromethyl)phenylsulfonamido)acetate] | 1000 to 30000 | < 100 | 100 to 999 |  |

Second part, the molecule after the results:

| EC50 (Mouse STC-1 cells) [nM] | EC50 (human TGR5 receptor) [nM] | EC50 (mouse TGR5 receptor) [nM] | Cmax [1] [ng/mL] | SMILES |
| --- | --- | --- | --- | --- |
| 100 to 999 | 100 to 999 | < 100 |  | Cc1cnccc1-c1cccc(C2CN(CCCC(=O)NCS(=O)(=O)O)CCN2S(=O)(=O)c2cccc(Cl)c2C)c1 (stereo not drawn) [Compound 53, (4-(4-((3-Chloro-2-methylphenyl)sulfonyl)-3-(3-(3-methylpyridin-4-yl)phenyl)piperazin-1-yl)butanamido)methanesulfonic acid] |
| 100 to 999 | < 100 | 100 to 999 |  | COCCN(C(C)(C)c1cccc(-c2ccncc2C)c1)S(=O)(=O)c1ccccc1C(F)(F)F [Compound 13AA, N-(2-methoxyethyl)-N-(2-(3-(3-methylpyridin-4-yl)phenyl)propan-2-yl)-2-(trifluoromethyl)benzenesulfonamide] |
|  | < 100 | < 100 | 109 | Cc1cnccc1-c1cccc(C(C)(C)N(CCCNC(=O)NCCS(N)(=O)=O)S(=O)(=O)c2cccc(Cl)c2C)c1 [Compound 29AB] |
|  | < 100 | < 100 | 228 | CCc1cnccc1-c1cccc(C2CN(S(=O)(=O)CC(=O)O)CCN2S(=O)(=O)c2cccc(Cl)c2C)c1 (stereo not drawn) [Compound 47, 2-((4-((3-Chloro-2-methylphenyl)sulfonyl)-3-(3-(3-ethylpyridin-4-yl)phenyl)piperazin-1-yl)sulfonyl)acetic acid] |
|  | < 100 | < 100 | 128 | Cc1cnccc1-c1cccc(C(C)(C)N(CCCC(=O)NCCS(N)(=O)=O)S(=O)(=O)c2cccc(Cl)c2C)c1 [Compound 20AE, 4-(3-chloro-2-methyl-N-(2-(3-(3-methylpyridin-4-yl)phenyl)propan-2-yl)phenylsulfonamido)-N-(2-sulfamoylethyl)butanamide] |
|  | < 100 | < 100 | 1.6 | CCc1cnccc1-c1cccc(C2CN(C(=O)CCCC(=O)O)CCN2S(=O)(=O)c2cccc(Cl)c2C)c1 (stereo not drawn) [Compound 46AA, 5-(4-((3-chloro-2-methylphenyl)sulfonyl)-3-(3-(3-ethylpyridin-4-yl)phenyl)piperazin-1-yl)-5-oxopentanoic acid] |
